Earlier results as cited in patent publication US20170342372A1, “CELL CULTURE MEDIA” (MERCK PATENT GMBH, priority 2014, published 2017).

Conditions: water / aqueous solvents

Compound	solubility in water (in words)
N[C@@H](CSSC[C@H](N)C(=O)O)C(=O)O [cystine]	poorly soluble
CC[C@H](C)[C@H](N)C(=O)O [isoleucine]	moderate solubility
CC(C)C[C@H](N)C(=O)O [leucine]	moderate solubility
CC(C)[C@H](N)C(=O)O [valine]	moderate solubility
